Experiments:
[1] = Interaction with salbutamol-induced hypoactivity; format: in vivo
Text: (§1) The action mechanism was studied in acute and chronic treatments on the interaction response with clonidine, salbutamol (Richard, J. Intern. J. Neuroscience, 9:17-19, 1979) and tetrabenazine (Pletscher, A.: An. N.Y. Aca. Sci. 80:1039-1045, 1959), and the response to the potentiation with L-dopa, L-tryptophan, tryptamine (Jalfre, M. et al., Arch. Int. Pharmacodyn, 159:194-221, 1982) and β-phenylethylamine (Ortmann, et al, Psychopharmacol. 84:22-27, 1984).

Potentiation of 5-HT = format: in vivo
rat cerebral MAO A and B = test: MAO inhibitory activity at the biochemical level (reversibility and selectivity)
Text: To determine MAO inhibitory activity at the biochemical level the following tests are used:
1. "In vitro inhibition" of rat cerebral MAO A and B giving I50 values for the two forms of the enzyme. Male Wistar rats (200 g) were used. Brains were obtained by decapitation and were homogenized. As substrates of the enzymes ^14 C-5-hydroxytryptamine oxalate 54 mCi/mmol and ^14 C-β-phenylethylamine were used. The residual enzymatic activities were referred to the activities in absence of MAO inhibitor (100%).
2. "Ex vivo inhibition" of rat cerebral MAO A and B after single dosing.
This gives the degree of inhibition in vivo of both forms of the enzyme and variation of this inhibition with time after treatment with a single dose. The compounds were administered intraperitoneally to male Wistar rats (175 g.) at a dose of 5 mg/kg in 1 ml/kg (H2 O). Animals were sacrificed by decapitation 24 h. and 7 days after treatment and brains were removed and homogenized. Enzymatic activities determined in treated animals, were compared with the activities in control animals (100%).
3. "Ex vivo" inhibition of rat cerebral MAO A and B after repeated dosing.
Male Wistar rats (175 g) were used.
The compounds were administered once daily intraperitonally for 7 days at a dose of 0.5 and 1 mg/kg in 1 ml/kg […]. […]

[2] = system: reuptake of noradrenaline; test: Reuptake of noradrenaline in vitro, crude synaptosomal preparation; format: biochemical, rat
Procedure: (§2) Influence on the reuptake of monoamines "in vitro" was also studied. The effect of the compounds on the reuptake of 5-HT noradrenaline and dopamine was studied using Wistar male rats (350±2.5 g). They were kept under controlled light and temperature conditions and fed "ad libitum" until killed. The animals were killed by decapitation and brains were frozen and stored at -20° C. prior to analysis. Brains were dissected on an ice-filled petri dish. The cortices for 5-HT and noradrenaline assay and striatum (including caudate nucleus, putamen and globus pallidus) for dopamine assay were immediately weighed and homogenized. The standard incubation medium contained: 1.7 μM ^14 C-5-HT); 0.5μM ^3 H-noradrenaline or 1 μM ^3 H-dopamine with 0.1 ml of the crude synaptosomal preparation. All drugs used in the study were dissolved in the incubation medium in a concentration range 10^-4 to 10^-8 M and were preincubated with the crude synaptosomal preparation obtained from the treated brains, for 5 min. at 37° C. or 0° C. before the addition of the labelled substrate.

5-HT receptors = test: Effects of chronic treatment on 5-HT2 receptors; format: in vivo; details: chronic administration in the rat
Procedure: Effects of chronic treatment on α2 -, β- and 5-HT2 receptors. The test compounds, at a dose of 10 mg/kg/day i.p., were administered for 21 days to Wistar male rats (250±2.4 g). After treatment the animals were killed, brains were dissected and cortices were scraped from the dorsal surface of the […]. ^3 H UK 14304, ^3 H Dihydroalprenalol and ^3 H Ketanserin were used as ligands in the binding studies.

[3] = system: brain, duodenum and liver MAO A; test: In vivo inhibition of MAO A of different tissues after chronic treatment; design: species or system rat; details: cerebral vs intestinal or hepatic
Procedure: 4. "In vivo" inhibition of MAO A and B of different tissues after chronic treatment.
In order to evaluate the effect of compounds in a chronic treatment, the inhibitory activity on brain, duodenum and liver MAO A and B has been studied "in vivo". Wistar male rats were treated at two dose levels, 0.1 and 0.25 mg/kg i.p. for 15 and 21 days. Control rats received similar amounts of saline solution.

[4] = Potentiation of L-tryptophan, L-dopa and tryptamine; details: in vivo
Text: as §1

[5] = Potentiation of β-phenylethylamine; format: in vivo
Text: as §1

Bovine Brain MAO A = molecular target: T1, Bovine Brain MAO A (Bos taurus, UniProt P21398); test: In vitro inhibition of MAO from bovine brain mitochondria, tyramine as substrate (form A); format: biochemical; details: pI50 = -log [I50], molar
T1 construct: in vitro activity of MAO from bovine brain mitochondria; from tissue; host or cells: bovine brain mitochondria
T1 sequence (P21398 1-527): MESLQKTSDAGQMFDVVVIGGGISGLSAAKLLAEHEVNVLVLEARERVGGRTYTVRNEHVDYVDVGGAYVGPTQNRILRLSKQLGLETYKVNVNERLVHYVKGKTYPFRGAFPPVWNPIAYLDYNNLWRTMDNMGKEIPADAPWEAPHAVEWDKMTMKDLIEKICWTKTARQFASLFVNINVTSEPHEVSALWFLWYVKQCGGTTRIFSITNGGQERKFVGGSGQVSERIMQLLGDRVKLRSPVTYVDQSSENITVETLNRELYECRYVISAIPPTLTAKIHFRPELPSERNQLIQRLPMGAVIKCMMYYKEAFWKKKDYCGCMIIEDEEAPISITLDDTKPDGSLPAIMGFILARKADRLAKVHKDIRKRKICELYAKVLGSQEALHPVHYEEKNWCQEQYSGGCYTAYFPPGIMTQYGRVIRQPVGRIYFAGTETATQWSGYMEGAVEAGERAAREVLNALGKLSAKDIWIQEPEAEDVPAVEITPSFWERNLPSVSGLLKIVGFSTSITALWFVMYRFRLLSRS
Text: The following table illustrates the structure of particular compounds of the invention (1). It also gives specific pI50 values where pI50 =-log [I50 ] where [I50 ] is the molar concentration of test compound which inhibits 50% of the in vitro activity of MAO from bovine brain mitochondria using tyramine as substrate.

reuptake of 5-HT = test: Reuptake of 5-HT in vitro, crude synaptosomal preparation; format: biochemical, rat
Procedure: as §2, with “The standard incubation medium contained: 1.7 μM ^14 C-5-HT); 0.5μM ^3 H-noradrenaline or 1 μM ^3 H-dopamine with 0.1 ml of the crude synaptosomal preparation.” left out

C#CCN(C)Cc1cc2cc(OC)ccc2n1C [(l), N-methyl-N-propargyl-2-(1-methyl-5-methoxy-indolyl)methylamine]
Hypoactivity by salbutamol, acute treatment ([1]; acute treatment): not modifying it
Hypoactivity by salbutamol, chronic treatment ([1]; chronic treatment (14 days)): antagonized
ED50 (Potentiation of 5-HT): 0.34 mg/kg
Type of MAO inhibition (reversibility, selectivity) (rat cerebral MAO A and B): irreversible and selective inhibitor of MAO A
Effect on the reuptake of noradrenaline [2]: no effect
Modifications on 5-HT receptors (5-HT receptors): not statistically significant
MAO A inhibitory effect, comparison of tissues [3]: higher on cerebral MAO A than on intestinal or hepatic MAO A
Potentiation of effects of L-tryptophan, L-dopa and tryptamine [4]: confirm the MAO inhibitory activity
ED50 [5]: 27 mg/kg
IC50 (Bovine Brain MAO A): 8.91 nM
Inhibition of the reuptake of 5-HT (reuptake of 5-HT): potent inhibitor
Potency as inhibitor of 5-HT reuptake relative to chlorimipramine or imipramine (reuptake of 5-HT): much higher
